One data set addresses T1, recombinant hDHODH (Homo sapiens, UniProt Q02127).
T1 construct: plasmid construct pFN2A–truncated hDHODH (31-395); made in house; host or cells: E. coli BL21DE3-Gold (DE3)
The data set is classed as biochemical. As to conditions: for Activity (pIC50): from hDHODH IC50, used for correlation with binding energy; for IC50: recombinant hDHODH, read-out: hDHODH IC50 ± SE. On the procedure: The vector produces hDHODH as an N-terminal GST-fusion protein. […] Triton X-100 was added to the lysate to a final concentration of 1% before centrifugation at 14,000g for 40 min at 4 °C. The clarified supernatant was incubated with DNase I for 30 min at room temperature, supplemented with 2 mM dithiothreitol (DTT), and filtered through a 0.45 μm syringe filter as previously described by Sainas et al.[38] The GST-fused enzyme was purified from the bacterial lysate using affinity chromatography on immobilized glutathione-sepharose columns (GE-HiTrap […] 1 mL). The GST tag was not cleaved for further analysis. All the reagents used in the protein expression and purification were supplied by Merck/Sigma-Aldrich if not otherwise specified.
The enzymatic inhibition assay was optimized for being performed on a 96-well plate and to achieve a higher throughput. For each well of the plate, a total volume of 200 μL was used: 5 μL of purified GST-hDHODH, 60 μL of 2,6-dichloroindophenol (DCIP) 500 μM, 20 μL of coenzyme Q10 enzyme 100 μM, 20 μL of dihydroorotate (DHO) 500 μM, and Tris–HCl pH 8 up to a final volume of 200 μL. Inhibitory activity was assessed by monitoring the reduction of DCIP, which is associated with the oxidation of dihydroorotate as catalyzed by the DHODH enzyme. […] The reaction was initiated by the addition of DHO (500 μM), and the absorbance kinetic reduction was monitored at λ = 650 nm using a multi-plate reader (Tecan, M1000Pro). In order to assess the minimum and maximum absorbance values of the enzymatic reaction, a Min control value was obtained by measuring the absorbance without DHO. Similarly, a Max value was obtained by measuring the absorbance with DHO but no inhibitor. A blank reduction calculation was also performed by measuring the absorbance values using 180 μL of Tris–HCl and 20 μL of coenzyme Q10. […] Values are means ± SE of three independent experiments.

Data set [1] can be described thus: log D7.4 by shake-flask method. As to conditions: pH 7.4. On the procedure:
In the shake-flask experiments, 50 mM of PBS pH 7.4 was used as the aqueous phase.

The next data set concerns Jurkat T-cells. In words: CFSE-based cytotoxic activity assay. The class given is cell-based, human. As to conditions: for cytotoxicity (effect≥30% ± SD): 3 days, concentration inducing cytotoxicity in ≥30% of cells; for Cytoxicity (effect > 30% ±SD): non-AML cells. On the procedure:
Cells were centrifuged and plated (1 × 10^4 in 200 μL of medium), with increasing concentrations of the hDHODH inhibitors (1 μM to 100 μM) for 3 days. Cells were harvested, and 1 μg/mL of propidium iodide was added to assign the ratio of cell death. The percentage of specific lysis was calculated in accordance with the following equation: [dead targets in sample (%) – spontaneously dead targets (%))/(100-spontaneously dead targets (%))] × 100. Spontaneous lysis was obtained by incubating cell lines in the medium supplemented with the corresponding percentage of DMSO used for the dilution of compounds. Values represent the concentration that induces significant cytotoxic effects (≥30%).

Data set [2] in a line: Solubility assay in PBS at pH 7.4. The data set is classed as physicochemical. As to conditions: PBS pH 7.4, 25 °C, LOD set at 6 µM; for solubility at 24 h: aqueous buffer, thermodynamic from solid; for Solubility in PBS: 24 h. On the procedure:
These suspensions were filtered through a PTFE 0.45 μm filter (VWR), and the solutions were chromatographically analyzed using a Perkin Elmer UHPLC instrument, equipped with a reverse-phase (RP) C18 Phenomenex column (2.1 × 100 mm, 1.7 μm particle size). […] The flow rate was 0.5 mL/min. The standard injection volume was either 2 or 4 μL for poorly soluble compounds. The detection system was a Perkin Elmer diode-array detector. The wavelengths that were monitored for each compound were defined according to the compound’s own absorption spectrum. Solubility, expressed as μM concentration of the saturated solution, was calculated via interpolation with external calibration curves that were obtained with solutions of each compound in acetonitrile.

Data set [3] relates to U937 cells. In words: cells. As to conditions: Homo sapiens, U-937, read-out: differentiation EC50 U937 (C.L. 95%).
Text: (§1) The differentiation pathway was monitored by analyzing the expression of CD11b (APC-conjugated BD Bioscience San Jose, CA, USA) or CD14 (APC-conjugated Beckam Coulter CA, USA) via flow cytometry analysis. […] Samples were acquired on an FACSVerse (BD-Biosciences San Jose CA) and dead cells were excluded from the analyses, according to the use of propidium iodide (Sigma-Aldrich, Milan, Italy). Data were processed using Kaluza software version 1.2 (Beckman Coulter Fullerton, CA).
Data set [4] has as its system THP1 cells. In words: cells. As to conditions: Homo sapiens, THP-1, 72 h, read-out: apoptosis EC50 THP1 (C.L. 95%).
For data set [5], the system named is THP1 cells. The experiment in a line: cells. As to conditions: Homo sapiens, THP-1, read-out: differentiation EC50 THP1 (C.L. 95%).
Text: as §1
In data set [6] the test system is U937 cells. The experiment in a line: cells. As to conditions: Homo sapiens, U-937, 72 h, read-out: apoptosis EC50 U937 (C.L. 95%).
The test system of a further data set is MV4-11 cells. In words: Apoptosis on MV4-11, alone or in combination with dipyridamole. As to conditions: MV4-11, compound 1 μM + dipyridamole 1 μM, 3 days.

The structures appear in SMILES notation. Converted amounts (≈) assume the structure as drawn. Read-outs that look alike come from different tables or passages of the source.

One may read the melting point as the temperature, or range, at which the solid turns liquid. The term IC50 denotes the concentration at which inhibition is half-maximal. One may read the logD as lipophilicity at a set pH, counting ionised and neutral species. In general, solubility refers to the concentration that dissolves in the medium under given conditions. Read a high solubility as much dissolved substance. For orientation: EC50 means the concentration needed to bring the measured effect to its halfway point. The term pKa denotes the pH at which an ionisable group is half protonated. A low value points to a group that gives up its proton readily.

T1 sequence (Q02127 31-395): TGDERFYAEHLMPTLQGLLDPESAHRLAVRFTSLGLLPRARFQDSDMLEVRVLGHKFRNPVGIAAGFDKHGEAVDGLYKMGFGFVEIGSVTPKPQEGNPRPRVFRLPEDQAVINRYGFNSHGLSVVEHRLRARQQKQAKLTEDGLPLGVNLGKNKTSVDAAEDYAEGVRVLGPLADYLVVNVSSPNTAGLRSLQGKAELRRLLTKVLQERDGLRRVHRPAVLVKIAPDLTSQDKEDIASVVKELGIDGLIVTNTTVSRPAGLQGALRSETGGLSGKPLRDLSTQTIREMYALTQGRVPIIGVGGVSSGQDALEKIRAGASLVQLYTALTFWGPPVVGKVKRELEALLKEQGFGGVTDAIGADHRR
Experimental for MV4-11 cells: After 3 days of culture, the apoptotic assay was performed using the Annexin V-FITC Kit (Miltenyi Biotec, Italy), according to the manufacturer’s instructions. The apoptotic cells were acquired on FacsVerse and analyzed using Kaluza software version 1.2 (Beckman Coulter Fullerton, CA).

As for `Cc1cc(NC(=O)c2c(O)nn3ccccc23)c(OC(C)C)cc1Oc1ccccc1` [Compound 6, 2-Hydroxy-N-(2-isopropoxy-5-methyl-4-phenoxyphenyl)pyrazolo[1,5-a]pyridine-3-carboxamide], the melting point is 239.3 to 240.6 °C (dec.). Besides, the “Activity (pIC50)” value at recombinant hDHODH is 5.28. Also, the half-maximal inhibitory concentration (IC50) on recombinant hDHODH (in vitro assay) was found to be 5200 ± 900 nM.

With `CCCC(C)Oc1cc(Oc2ccccc2)c(C)cc1NC(=O)c1c(O)nn2ccccc12` (stereo not shown) [Compound 10, 2-Hydroxy-N-(5-methyl-2-(pentan-2-yloxy)-4-phenoxyphenyl)pyrazolo[1,5-a]pyridine-3-carboxamide], the melting point is 250.5 to 251.3 °C (dec.). In addition, at recombinant hDHODH, the “Activity (pIC50)” value is given as 5.15. The IC50 at recombinant hDHODH (in vitro assay) was 7000 ± 1000 nM.

Consider `O=C(Nc1ccc2c(c1)nnn2-c1ccccc1)c1c(O)nn2ccccc12` [Compound 14, 2-Hydroxy-N-(1-phenyl-1H-benzo[d][1,2,3]triazol-5-yl)pyrazolo[1,5-a]pyridine-3-carboxamide], for which the melting point was 269.9 to 271.9 °C (dec.). Further, at recombinant hDHODH, the “Activity (pIC50)” value was found to be 5.14. Further, the IC50 at recombinant hDHODH (in vitro assay) turned out to be 7200 ± 1600 nM. The compound also registered a logD in data set [1] of 1.59 ± 0.03.

`Cc1cc(NC(=O)c2c(O)nn3ccccc23)c(C(C)C)cc1Oc1ccncc1` [Compound 18, 2-Hydroxy-N-(2-isopropyl-5-methyl-4-(pyridin-4-yloxy)phenyl)pyrazolo[1,5-a]pyridine-3-carboxamide]: in the data set on Jurkat T-cells, the “cytotoxicity (effect≥30% ± SD)” value turned out to be 75830 ± 10340 nM. For the same compound, the “Cytoxicity (effect > 30% ±SD)” value in the data set on Jurkat T-cells is reported as 75,8 ± 10,3 µM. The compound further returned a solubility at 24 h in data set [2] of 111 µM (≈ 44.7 µg/mL). The EC50 amounted to 2280 nM in the data set with U937 cells [3], 2650 nM in the data set on THP1 cells [4], 1970 nM with THP1 cells [5] and 9820 nM in the data set with U937 cells [6]. In data set [1], the logD was 2.51 ± 0.07.

As to `O=C(Nc1ccc(Oc2cccc(C(F)(F)F)c2)cn1)c1c(O)nn2ccccc12` [Compound 16, 2-Hydroxy-N-5-[3-(trifluoromethyl)phenoxy]pyridin-2-ylpyrazolo[1,5-a]pyridine-3-carboxamide], the melting point is 241.2 to 242 °C (dec.). Moreover, at recombinant hDHODH (in vitro assay), the IC50 was more than 10000 nM.

Take `Cc1cc(Sc2ccncc2)c(C)cc1NC(=O)c1c(O)nn2ccccc12` [Compound 17, 2-Hydroxy-N-(2,5-dimethyl-4-(pyridin-4-ylthio)phenyl)pyrazolo[1,5-a]pyridine-3-carboxamide]: the melting point was 250.5 to 251.9 °C (dec.). Also, on recombinant hDHODH, the “Activity (pIC50)” value was 5.66. For the same compound, at recombinant hDHODH (in vitro assay), the half-inhibitory concentration (IC50) turned out to be 2200 ± 400 nM. Moreover, the log distribution coefficient (logD) in data set [1] stood at 1.76 ± 0.07.

As to `O=C(Nc1ccc2c(c1)ncn2-c1ccccc1)c1c(O)nn2ccccc12` [Compound 13, 2-Hydroxy-N-(1-phenyl-1H-benzo[d]imidazole-5-yl)pyrazolo[1,5-a]pyridine-3-Carboxamide], the melting point was 258.7 to 260.1 °C (dec.). The IC50 on recombinant hDHODH (in vitro assay) is more than 10000 nM. For the same compound, in data set [1], the pH-dependent lipophilicity (logD) amounted to 2.55 ± 0.04.

Take `CCC(C)Oc1cc(Oc2ccccc2)c(C)cc1NC(=O)c1c(O)nn2ccccc12` (stereo not shown) [Compound 8, N-(2-(Sec-butoxy)-5-methyl-4-phenoxyphenyl)-2-hydroxypyrazolo[1,5-a]pyridine-3-carboxamide]: the “Activity (pIC50)” value at recombinant hDHODH is 5.41. The 50% inhibitory concentration (IC50) on recombinant hDHODH (in vitro assay) was 3900 ± 800 nM.

In the case of `O=C(Nc1ccc2[nH]ccc2c1)c1c(O)nn2ccccc12` [Compound 11, 2-Hydroxy-N-(1H-indol-5-yl)pyrazolo[1,5-a]pyridine-3-carboxamide], the IC50 on recombinant hDHODH (in vitro assay) was more than 10000 nM. Further, the pKa in “physchem” (by spectroscopic) stood at 4.81 ± 0.06; in the data set “physchem” (potentiometric titration), 4.85 ± 0.03. Moreover, in data set [1], the logD was determined as 0.45 ± 0.02.

For `Cc1cc(NC(=O)c2c(O)nn3ccccc23)c(OC2CCC2)cc1Oc1ccccc1` [Compound 7, N-(2-Cyclobutoxy-5-methyl-4-phenoxyphenyl)-2-hydroxypyrazolo[1,5-a]pyridine-3-carboxamide], the melting point was 262.5 to 263.3 °C (dec.). Besides, the half-maximal inhibitory concentration (IC50) at recombinant hDHODH (in vitro assay) is more than 10000 nM.

For `Cc1cc(Oc2ccccc2)c(C)cc1NC(=O)c1c(O)nn2ccccc12` [Compound 1], on recombinant hDHODH, the “Activity (pIC50)” value came to 7.30 and the IC50 was 50 ± 5 nM. Moreover, the IC50 on recombinant hDHODH (in vitro assay) stood at 50 ± 5 nM.

As for `CCC(CC)Oc1cc(Oc2ccccc2)c(C)cc1NC(=O)c1c(O)nn2ccccc12` [Compound 9, 2-Hydroxy-N-(5-methyl-2-(pentan-3-yloxy)-4-phenoxyphenyl)pyrazolo[1,5-a]pyridine-3-carboxamide], the “Activity (pIC50)” value on recombinant hDHODH is listed as 5.66. For the same compound, the IC50 at recombinant hDHODH (in vitro assay) is 2210 nM.

In the case of `O=C(Nc1ccc(Oc2ccccc2)cn1)c1c(O)nn2ccccc12` [Compound 15, 2-Hydroxy-N-(5-phenoxypyridin-2-yl)pyrazolo[1,5-a]pyridine-3-carboxamide], the melting point is 161.1 to 161.9 °C (dec.). Moreover, the concentration for half-maximal inhibition (IC50) at recombinant hDHODH (in vitro assay) was more than 10000 nM. The solubility at 24 h in data set [2] is 1850 µM (≈ 641 µg/mL).

As for `Cc1cc(Oc2ccccc2)c(C(C)C)cc1NC(=O)c1c(O)nn2ccccc12` [Compound 5, 2-Hydroxy-N-(5-isopropyl-2-methyl-4-phenoxyphenyl)pyrazolo[1,5-a]pyridine-3-carboxamide], the “times less potent than brequinar on the isolated enzyme” value at recombinant hDHODH was found to be 63 times. The “cytotoxicity (effect≥30% ± SD)” value with Jurkat T-cells was >100,000 nM. Besides, the “Cytoxicity (effect > 30% ±SD)” value with Jurkat T-cells was more than 100 µM. The “Solubility in PBS” value in [2] was “< LOD”. For the same compound, the concentration for a half-maximal effect (EC50) is 235 nM in the data set on U937 cells [3], 499 nM in the data set with THP1 cells [4], 372 nM with THP1 cells [5] and 701 nM in the data set with U937 cells [6]. Further, in the data set with MV4-11 cells, the “apoptotic rate with dipyridamole” value was 90.54 ± 2.27%. For the same compound, in [1], the log distribution coefficient (logD) worked out at 2.91 ± 0.07.

As to `Cc1cc(Oc2ccccc2)ccc1NC(=O)c1c(O)nn2ccccc12` [Compound 3], the melting point fell in the range of 238.3 to 239.9 °C.

For the compound `O=C(Nc1ccc2c(ccn2-c2ccccc2)c1)c1c(O)nn2ccccc12` [Compound 12, 2-Hydroxy-N-(1-phenyl-1H-indol-5-yl)pyrazolo[1,5-a]pyridine-3-carboxamide], the melting point is 252.4 to 253.8 °C (dec.). Further, the “Activity (pIC50)” value on recombinant hDHODH was determined as 5.55. On recombinant hDHODH (in vitro assay), the IC50 was 2800 ± 400 nM. In addition, the logD in [1] worked out at 2.89 ± 0.05.

Turning to `Cc1cc(NC(=O)c2c(O)nn3ccccc23)c(C(C)C)cc1Oc1ccc(C(F)(F)F)cc1` [Compound 19, 2-Hydroxy-N-(2-isopropyl-5-methyl-4-(4-(trifluoromethyl)phenoxy)phenyl)pyrazolo[1,5-a]pyridine-3-carboxamide], at recombinant hDHODH, the “times less potent than brequinar on the isolated enzyme” value was found to be 10 times. The “cytotoxicity (effect≥30% ± SD)” value in the data set with Jurkat T-cells is reported as 71320 ± 5250 nM. Moreover, the “Cytoxicity (effect > 30% ±SD)” value with Jurkat T-cells is given as 71,3 ± 5,3 µM. Further, the “Solubility in PBS” value in data set [2] was “< LOD”. Also, the EC50 in the data set on U937 cells [3] turned out to be 109 nM; in the data set with THP1 cells [4] it was 230 nM; in the data set with THP1 cells [5], 133 nM; in the data set with U937 cells [6] it was 448 nM.

As for `Cc1cc(NC(=O)c2c(O)nn3ccccc23)ccc1Oc1ccccc1` [Compound 2], at recombinant hDHODH, the “Activity (pIC50)” value was determined as 6.32.

For the origin of these results see paper PMC9574863 (Journal of Medicinal Chemistry, 2022).
